“Also recorded” adds a separate entry of the source. Like-named read-outs stand apart in the source and are kept apart here.
Columns and labels:
[1] = target: purified L. tarentolae tubulin (Leishmania tarentolae, UniProt A0A640KCM0+A0A640KQN0); assay: Chemical cross-linking competition with SW223022 probe; type: binding; details: 100-fold excess of competitor
[2] = system: L. amazonensis axenic amastigotes; assay: alamarBlue viability / concentration-response assay, axenic amastigotes; type: cell-based, Leishmania amazonensis
Description: (§1) Leishmania amazonensis axenic amastigotes (100 μL, 2×10^6 cells/mL) were added to 96-multiwell plates containing 100 μL of amastigote culture medium with an appropriate compound dilution series. 0.1% DMSO (no drug) served as a positive control (100%), and 5 μM amphotericin B served as a negative growth control (0%). Only internal wells were used to minimize edge effects from evaporation. Axenic amastigotes were incubated at 32° C. with a compound/drug for 72 h prior to measurement. Similarly, the cytotoxicity of each compound was determined against RAW 264.7 cells and HepG2 cell lines, following 72 h incubation at 37° C. (promastigotes at 26° C.).
(§2) 10% alamarBlue® (Thermo Fisher Scientific) was used to measure the growth of both parasite and mammalian cells. Conversion from a blue oxidized state to a pink reduced state was assessed visually at 6 hr. The fluorescence signal was measured with a BioTek Synergy H1 plate reader (530 nm excitation, 570 nm emission). For bioluminescence assays using L. amazonensisluc, relative luminescence units (RLU) were measured using Britelite Plus (PerkinElmer, USA). Luminescence produced by this luciferase reaction is proportional to the amount of luciferase-expressing, viable L. amazonensisluc. Following five-minute incubation at room temperature, the luminescence was measured with a BioTek Synergy H1 plate reader.
All experiments were conducted as three technical triplicates on the same plate, with at least three independent biological repeats of each plate performed. For all assays, percent growth was expressed as a proportion of the untreated (positive) control (i.e. 100%) and plotted against drug/compound concentration. The concentration was then log10 transformed and EC50 values were determined using nonlinear regression (sigmoidal dose-response/variable slope equation) in GraphPad Prism v5.0 (GraphPad Software, Inc., San Diego, CA).
To identify antileishmanial compounds, a microplate-based alamarBlue® assay was used to quickly triage the 400 drug-like compounds available in the MMV Pathogen Box collection. […] A three-step process was used to screen the Pathogen Box: 1) identify hits against axenic amastigotes, 2) confirm the inhibitory concentrations of these hits against axenic amastigotes, 3) evaluate hits for potency against intracellular parasites using fluorescence and bioluminescence-based intracellular assays. The MMV Pathogen Box resource was tested at two concentrations (5 μM and 1 μM, 72 h endpoint) on axenic amastigotes.
Hits were defined as compounds that, at a concentration of 1 μM, decreased the relative fluorescence intensity signal to ≤70% of that produced by parasites incubated in vehicle (0.06% DMSO) only (FIG. 9).

[3] = Cytotoxicity, alamarBlue; type: cell-based; details: mouse, RAW 264.7 macrophage cells, read-out: CC50^72 h cytotoxicity (macrophage / mammalian cells)
Description: as §1
as §2, with “reader. […]” for “reader.”

[4] = system: intracellular L. amazonensis amastigotes; assay: Intramacrophage bioluminescence assay with luciferase-expressing L. amazonensis; type: cell-based, Leishmania amazonensis
Description: Intracellular EC50s were estimated with L. amazonensisluc parasites. Briefly, RAW 264.7 cells or BM primary Mϕs were starved overnight, then infected with metacyclic promastigotes at a Multiplicity of Infection (MOI) of 15 and incubated for another 24 h at 37° C. The plates containing infected RAW 264.7 cells/BM primary M4s were washed five times with serum-free DMEM. Serially diluted compounds were added, and plates were incubated at 37° C. for 72 hrs. Bioluminescence signal was measured as described above.
RAW 264.7 cells were used to perform a bioluminescence assay with transgenic luciferase-expressing L. amazonensis (FIG. 1C).

[5] = system: blood-stage P. falciparum (3D7 strain); assay: Malaria SYBR green I fluorescence (MSF) assay; type: cell-based, Plasmodium falciparum; details: 3D7 strain
Description: For other parasites, L. donovani, strain MHOM/SD/62/1S-C12D, was grown as previously described. Plasmodium falciparum parasites of the 3D7 strain were cultured in RPMI 1640 medium supplemented with 37.5 mM HEPES, 10 mM D-glucose, 2 mM L-glutamine, 100 μM hypoxanthine, 25 μg/mL gentamicin, 4% (v/v) human serum and 0.25% (v/v) Albumax II, at a 2% haematocrit in an atmosphere of 1% 02, 3% CO2 and 96% N2. Staging and parasitemia of the in vitro culture were assessed by light microscopy of Giemsa-stained thin blood smears.
Compounds were tested against the blood-stage Trypanosoma brucei (48 hr endpoint) and intra-erythrocytic asexual stages Plasmodium falciparum (3D7) using CellTiter-Glo® luminescent and Malaria SYBR green I fluorescence (MSF) assays, respectively. Similar methodology will be used for future experiments.
MMV676477 was tested against several other parasites: the axenic amastigotes of Leishmania donovani and Leishmania tarentolae, blood-stage Plasmodium falciparum, and Trypanosoma brucei. The compound's activity was measured using alamarBlue®, Malaria SYBR green I fluorescence (MSF) and CellTiter-Glo® luminescent assays. […] In addition, MMV676477 has also been recently reported as having potent activity against Neospora caninum, Cryptosporidium parvum, Toxoplasma gondii, and Entamoeba histolytica.

[6] = system: L. amazonensis promastigotes and amastigotes; assay: Microscopic analysis of cell division; type: cell-based, Leishmania amazonensis; details: 48 h at EC50^72 h
Description: (§3) Promastigotes or amastigotes were treated with the indicated compound concentrations and allowed to adhere to poly-L-lysine coated plates. All cells were fixed with 4% paraformaldehyde and permeabilized/blocked with 0.01% Triton X-100 and 2% BSA in PBS. Promastigotes and amastigotes were incubated with mouse anti-gp46 or anti-p8, respectively at 1:50 or 1:1000 and rat anti-alpha-tubulin antibody at 1:1000. Samples were then probed with A568 anti-mouse and […] secondary antibodies (Molecular Probes). DNA was labeled with Hoescht. Samples were visualized on a Zeiss LSM 880 Inverted confocal Airyscan microscope at 63×; full Z-thicknesses through parasites were obtained. […] For microscopic analysis of mitotic arrest, at least 200 parasites were analyzed per condition per experiment after 48 hrs incubation at compounds' EC50, and the average plus standard error for three experiments was calculated. Representative images were selected from the maximal intensity projections and linearly processed in Adobe Photoshop CS6.
The molecular target of MMV676477 was investigated.

[7] = system: L. amazonensis promastigotes and amastigotes; assay: Tubulin intensity by confocal immunofluorescence microscopy; type: cell-based, Leishmania amazonensis; details: 24 h at EC50^72 h
Description: as §3
One reason why MMV676477 might affect parasite cell division is that, like paclitaxel, it might affect microtubule polymerization, either directly or indirectly. The degree to which MMV676477 affected microtubules polymerization in cells was examined. […] Centrifugation of these extracts allowed separation of insoluble polymeric (pellet) and soluble dimeric (supernatant) tubulin. […] The intensity of α-tubulin staining was examined by normalizing it to the intensity of a membrane protein (gp46 for promastigotes in FIG. 4D; p8 for amastigotes in FIG. 4E).

[8] = system: intracellular L. amazonensis amastigotes; assay: Intracellular washout assay (LD50); type: cell-based, Leishmania amazonensis
Description: Intracellular LD50s were measured. Briefly, RAW 264.7 cells were seeded to 96-multiwell plates at a density of 2×10^5 cells/mL (200 μL) and starved overnight at 37° C. The cells were infected with metacyclic promastigotes at a Multiplicity of Infection (MOI) of 15 and incubated for another 24 h at 37° C. The plates containing infected RAW 264.7 cells/BM primary M #s were washed five times with serum-free DMEM. Serially diluted compounds were added, and plates were incubated at 37° C. for 72 hrs. Wells were washed five times with DMEM, and the RAW 264.7 cells were lysed with 100 μL of 2 mg/mL saponin in DMEM for 5 min at room temperature, and further lysis was stopped with 100% FBS. After centrifugation, 200 μL acidic promastigotes media was replaced, plates were incubated at 26° C. for 96 h. Fluorescence intensity (alamarBlue®) was measured as described above.
All routine in vitro quantification of antileishmanial drug potency is quantification of “cytostatic” potency. […] Therefore, the cytocidal action of MMV676477 was quantified by obtaining an LD50 at 72 h (a Lethal Dose that kills 50% of the bulk population of the parasites relative to untreated control) and compared it to the known cytocidal drug amphotericin. An intracellular washout assay was employed. […] The ratio of LD50:EC50 was calculated for MMV676477 and amphotericin. Lower ratios indicate that the LD50 is similar to the EC50 value, meaning that the estimated EC50 values represent killing of the parasites rather than simple growth inhibition.

[9] = Leishmania amazonensis, 72 h, axenic amastigotes; read-out: EC50^72 h against L. amazonensis axenic amastigotes
[10] = Pathogen Box screen, 1 μM, 72 h

Question: With CSc1ccccc1C(=O)Oc1cc(C)nc(-n2nc(C)cc2N)n1 [SW10] as the compound, how does the “competition with SW223022 probe (fluorescent tubulin band)” value (from here on “competition with SW223022 probe”) [1] read?
Answer: Its value is “No apparent competition”.

Question: What does the source list for C#CCOc1ccc(C(=O)c2ccc(C(=O)Nc3cc(C)nn3-c3nc(C)c(CC)c(=O)[nH]3)cc2)cc1 [SW223022, N-(1-(5-Ethyl-4-methyl-6-oxo-1,6-dihydropyrimidin-2-yl)-3-methyl-1H-pyrazol-5-yl)-4-(4-(prop-2-yn-1-yloxy)benzoyl)benzamide]?
Answer: EC50 ([2]; 72 h, axenic amastigotes; read-out: EC50^72 h against L. amazonensis axenic amastigotes): 156 nM; EC50 [2, 9]: 160 nM

Question: For CCc1c(C)nc(-n2nc(C)cc2NC(C)=O)[nH]c1=O [SW223023, N-(1-(5-Ethyl-4-methyl-6-oxo-1,6-dihydropyrimidin-2-yl)-3-methyl-1H-pyrazol-5-yl) acetamide], which “competition with SW223022 probe” value [1] is on record?
Answer: Its value is “No apparent competition”.

Question: With CCc1c(C)nc(-n2nc(C)cc2NC(=O)c2ccc(F)c(Cl)c2)[nH]c1=O [SW223041, 3-Chloro-N-(1-(5-ethyl-4-methyl-6-oxo-1,6-dihydropyrimidin-2-yl)-3-methyl-1H-pyrazol-5-yl)-4-fluorobenzamide] as the compound, how does the EC50 [2, 9] read?
Answer: The EC50 was 20 nM.

Question: What about the “improvement of potency against L. amazonensis compared to MMV676477” value ([2]; fold vs MMV676477) of the same compound?
Answer: Its value is “four to five-fold improved potency; also recorded: about four-fold improved activity”.

Question: What about the CC50 at 72 h [3] of the same compound?
Answer: The CC50 at 72 h was 2400 nM.

Question: What about the “potency against L. amazonensis intracellular amastigotes relative to MMV676477” value [4] of the same compound?
Answer: Its value is 3-4 fold.

Question: What about the “competition with SW223022 probe” value [1] of the same compound?
Answer: Its value is “almost completely absent”.

Question: What about the “potency against blood-stage P. falciparum relative to MMV676477” value [5] of the same compound?
Answer: Its value is 3-4 fold.

Question: What does the source list for CCc1c(C)nc(-n2nc(C)cc2N)[nH]c1=O [SW223075, 2-(5-amino-3-methyl-1H-pyrazol-1-yl)-5-ethyl-6-methylpyrimidin-4(3H)-one]?
Answer: EC50 [2, 9]: 290 nM; percentage of L. amazonensis undergoing cell division [6]: no effect on cell division; tubulin intensity over control (DMSO-treated) [7]: did not increase tubulin intensity

Question: What does the source list for CCc1c(C)nc(-n2nc(C)cc2NC(=O)Nc2ccc(OC)cc2)[nH]c1=O [SW223102, 1-(1-(5-Ethyl-4-methyl-6-oxo-1,6-dihydropyrimidin-2-yl)-3-methyl-1H-pyrazol-5-yl)-3-(4-methoxyphenyl)urea]?
Answer: EC50 [2, 9]: 2400 nM; competition with SW223022 probe (fluorescent tubulin band) [1]: less-pronounced dimming

Question: For C[C@@H]1[C@H](O)[C@@H](C)/C=C/C=C/C=C/C=C/C=C/C=C/C=C/[C@H](O[C@@H]2O[C@H](C)[C@@H](O)[C@H](N)[C@@H]2O)C[C@@H]2O[C@](O)(C[C@@H](O)C[C@@H](O)[C@H](O)CC[C@@H](O)C[C@@H](O)CC(=O)O[C@H]1C)C[C@H](O)[C@H]2C(=O)O [amphotericin B], which EC50 ([2]; Leishmania amazonensis; 72 h, axenic amastigotes; read-out: EC50^72 h against L. amazonensis axenic amastigotes) is on record?
Answer: Its EC50 is 53 nM.

Question: And the EC50 ([4]; Leishmania amazonensis, RAW264.7, 72 h, read-out: EC50^72 h against intracellular L. amazonensis amastigotes)?
Answer: The EC50 was 77 nM.

Question: And the LD50/EC50 ratio ([8]; intracellular amastigotes)?
Answer: The LD50/EC50 ratio was 1.

Question: And the “LD50 72 h” value ([8]; intracellular washout, 72 h)?
Answer: Its value is 82 nM.

Question: With CC(=O)OC[C@H]1O[C@@H]([S-])[C@H](OC(C)=O)[C@@H](OC(C)=O)[C@@H]1OC(C)=O.CCP(CC)CC.[Au+] [auranofin] as the compound, how does the “relative fluorescence intensity signal vs vehicle (hit definition)” value (from here on “relative fluorescence intensity signal”) [2, 10] read?
Answer: Its value is “hits”.

Question: For CC(C)(C)[C@H]1CC[C@H](CC2=C(O)C(=O)c3ccccc3C2=O)CC1 [buparvaquone], which “relative fluorescence intensity signal” value [2, 10] is on record?
Answer: The value was “hits”.

Question: For C[C@]1(COc2ccc(N3CCC(Oc4ccc(OC(F)(F)F)cc4)CC3)cc2)Cn2cc([N+](=O)[O-])nc2O1 [delamanid], which “relative fluorescence intensity signal” value [2, 10] is on record?
Answer: Its value is “hits”.

Question: With CCCCCCCCCCCCCCCCOP(=O)([O-])OCC[N+](C)(C)C [miltefosine] as the compound, how does the “percentage of L. amazonensis undergoing cell division” value [6] read?
Answer: The value was “did not affect L. amazonensis cell division”.

Question: And the “tubulin intensity over control (DMSO-treated)” value [7]?
Answer: The value was “did not increase tubulin intensity”.

Question: For CC(=O)Oc1ccccc1C(=O)Nc1ncc([N+](=O)[O-])s1 [nitazoxanide], which “relative fluorescence intensity signal” value [2, 10] is on record?
Answer: Its value is “hits”.

From patent US20240139190A1, “NOVEL ANTIPARASITIC COMPOUNDS AND METHODS” (The Board of Regents of The University of Texas System, priority 2019, published 2024)
